Measured values reported in PMC5329948, “Caspase vinyl sulfone small molecule inhibitors prevent axonal degeneration in human neurons and reverse cognitive impairment in Caspase-6-overexpressing mice” (Molecular Neurodegeneration, 2017).

System: APPWT-transfected primary human CNS neurons
Experiment: Neuritic beading/degeneration in APPWT-transfected primary human neurons
Type: cell-based
Settings: for neuritic beading: APPWT/EGFP co-expression, 48 h; for neuritic beading / percentage of beaded neurons, fold of EGFP-alone: NWL 100 μM, Z-VEID-fmk 5 μM; for percentage of beaded neurons, fold of EGFP-alone: live imaging 72 h, APPWT vehicle 1.52, EGFP-alone 1.00, mean ± SEM
Protocol: Immunofluorescence on human neuron cultures: Primary human neurons were pre-treated 2 h and serum-deprived in the presence of 100 μM NWL-117, 100 μM NWL-154, or 5 μM Z-VEID-fmk (Biomol, Plymouth meeting, PA, USA) for 24 h. Following treatment, human neurons were washed once with warm PBS, fixed for 20 min at room temperature with 4% paraformaldehyde (Sigma, Oakville, ON, CA)/4% sucrose (BioRad, Mississauga, ON, CA) for TubΔCasp6 or 2% formaldehyde (Thermo Fisher Scientific, Waltham, MA, USA)/0.2% glutaraldehyde (Sigma, Oakville, ON, CA) for pBudEGFP or pBudEGFP/APP^WT-transfected neurons, incubated in permeabilization buffer (0.1% Triton X-100, 0.1 sodium citrate) for 1 min on ice, washed with PBS, blocked for 20 min at room temperature with 10% goat serum (Sigma, Oakville, ON, CA), and incubated with primary antibodies diluted in 10% goat serum in PBS overnight at 4 °C in a humid chamber. The glass coverslips were washed with PBS, and incubated with goat anti-rabbit secondary antibody coupled to Alexa 488 (Molecular Probes, Eugene, OR, USA) or Cy3 (GE Healthcare Life Sciences, Baie D’Urfe, QC, CA) and Hoechst 33342 (ImmunoChemistry, Bloomington, MN, USA) at 1 μg/mL for 2 h at room temperature. The coverslips were washed with PBS and rinsed in Milli-Q water before mounting in fluoromount (Dako, Burlington, ON, CA). Images were acquired by fluorescence microscopy and quantified using the ImageJ software (NIH, Bethesda, MD, USA) for TubΔCasp6 and manually counted for transfected EGFP(+)-neurons. Time lapse-imaging by live fluorescence microscopy: Primary human neurons were transfected with gold beads coated with pBudEGFP or pBudEGFP/APP^WT using a Helios Gene gun (BioRad, Mississauga, ON, CA). Briefly, cells were pre-treated with 100 μM NWL inhibitors or 5 μM Z-VEID-fmk for 2 h. The media was removed and the neurons were shot at 100 psi. The media was quickly replaced with the inhibitors present. The plasmid was expressed for 16 h before setting up the fluorescence microscope (Nikon Eclipse Ti) to acquire 20 images per condition every hour for 72 h at 37 °C with 5% CO2. The images were analyzed by counting the total number of neurons (50–100 neurons per condition per independent experiment), and the number of beaded, swollen soma, and healthy neurons. In addition, the time at which cells beaded was noted. Phase contrast microscopy: HCT116 cells, plated at a density of 1×10^5 cells/well and human neurons, plated at a density of 6×10^6 cells/well on poly-L-lysine were treated with PBS, 100 μM NWL-117, 100 μM NWL-154, or 2 μM staurosporine (Biomol, Plymouth meeting, PA, USA) for 24 h. Images were acquired with the Nikon Eclipse Ti microscope and the NIS-Elements (Version 3.10) software.

[1] = APPWT-transfected neurons, live imaging, 100 μM

| SMILES | neuronal soma rounding [1] | neuronal survival (neurons with homogeneously distributed EGFP) [1] | neuritic beading | percentage of beaded neurons, fold of EGFP-alone [fold] |
| --- | --- | --- | --- | --- |
| CCC(C)[C@H](NC(=O)[C@H](CCC(=O)O)NC(=O)[C@@H](NC(=O)OCc1ccccc1)C(C)C)C(=O)N[C@H](/C=C/S(C)(=O)=O)CC(=O)O (stereo partly drawn) [NWL-117] | inhibited | significantly increases neuronal survival | prevented neuritic beading | 0.84 |
| CCC(C)[C@H](NC(=O)[C@H](CCC(=O)O)NC(=O)[C@@H](NC(=O)OCc1ccccc1)C(C)C)C(=O)N[C@H](/C=C(\Cl)S(C)(=O)=O)CC(=O)O (stereo partly drawn) [NWL-154] |  |  | prevented neuritic beading | 1.07 |
